This note sets out measurements from patent US12274684B2, “Treatment of vasculopathy with prostacyclin and mesenchymal stem cells” (United Therapeutics Corporation, priority 2013, dated 2025).

Holding throughout (type): cell-based
The test system of experiment [1] is human bone marrow MSC. Kind of experiment: VEGF-A gene expression in MSC by qRT-PCR. The protocol:
Conditioned media was assayed for VEGF by ELISA after 24 hours of treprostinil exposure (n=4 replicates). Cells from those replicates were lysed, and RNA was extracted to determine VEGF-A gene expression by qRT-PCR. Cells from the remaining two (2) replicates were trypsinized, and assayed for cell viability by trypan blue exclusion. Cell culture supernatant was assayed for VEGF protein by ELISA (FIG. 3A, n=4). Cell lysates from those cultures were assayed for VEGF-A gene expression by qRT-PCR, and normalized to the control value (FIG. 3B, n=4). In both figures, error bars represent the standard deviation in each test group. To characterize the effect of treprostinil on MSC, cells were analyzed by qRT-PCR and microarray to identify changes in gene expression (4). Cell culture supernatant media was assayed for selected inflammatory cytokines by bead-based immunoassays (2). Secreted vesicles were isolated from cell culture supernatant, and assayed for RNA content by qRT-PCR (7). Vesicles were also assayed for size and concentration by tunable resistive pulse sensing, or TRPS (7) (refer to Example 4).
(Quantitative PCR measures a nucleic acid by following its amplification.)

Experiment [2] deals with human bone marrow MSC. Kind of experiment: RNA content of MSC-derived exosomes by qRT-PCR. Particulars: 250 μg/mL. The protocol:
After 24 hours of culture, representative images were captured from (+) Tre and (−) Tre cultures. Conditioned media was collected from each replicate, divided into two samples of appropriate volumes, and analyzed separately for: 1) secreted proteins (Myriad RBM InflammationMAP® 1.0) and 2) exosome RNA content. Cells were lysed directly from culture flasks, processed for total RNA isolation, and analyzed for gene expression by microarray (Illumina Human HT12 Expression BeadChip). To characterize the effect of treprostinil on MSC, cells were analyzed by qRT-PCR and microarray to identify changes in gene expression (4). Cell culture supernatant media was assayed for selected inflammatory cytokines by bead-based immunoassays (2). Secreted vesicles were isolated from cell culture supernatant, and assayed for RNA content by qRT-PCR (7). Vesicles were also assayed for size and concentration by tunable resistive pulse sensing, or TRPS (7) (refer to Example 4). Total RNA was extracted from exosomal preparations, and qRT-PCR was performed with the same primer/probe sets used in experiments with the parent cells (refer to FIG. 8). VEGF-A gene transcripts present in MSC-derived exosomes were increased ˜4-fold as a result of treprostinil exposure (FIG. 10).

Experiment [3] relates to human bone marrow mesenchymal stem cells (BM-MSC). Kind of experiment: VEGF secretion by MSC, ELISA of conditioned media. As for the experimental part: A single vial of human bone marrow-derived MSC was expanded and seeded into twenty (20) wells of 6-well plates using standard growth medium. At 95-99% confluency, cells were thoroughly washed with phosphate-buffered saline (PBS). Cells were then exposed to media containing 0, 0.1, 1.0, 10, or 100 μg/mL of treprostinil (n=4 wells for each concentration). After 24 hours of culture, the conditioned media was collected from each replicate and analyzed for Vascular Endothelial Growth Factor (VEGF) protein by enzyme-linked immunosorbent assay (ELISA). The goal of this experiment was to determine the optimal concentration of treprostinil needed to elicit a cellular response in MSC (using VEGF as a read out). A follow-up experiment to Example 1 was conducted to determine if treprostinil concentrations above 100 μg/mL affected MSC secretion of VEGF. As before, a single vial (same lot/batch) of bone marrow-derived MSC was expanded to thirty (30) wells of 6-well plates using standard growth medium. At 95-99% confluency, cells were thoroughly washed with PBS. Cells were then exposed to media containing 0, 100, 200, 300, or 400 μg/mL of treprostinil (n=6 wells for each concentration). Conditioned media was assayed for VEGF by ELISA after 24 hours of treprostinil exposure (n=4 replicates). Cells from those replicates were lysed, and RNA was extracted to determine VEGF-A gene expression by qRT-PCR. Cells from the remaining two (2) replicates were trypsinized, and assayed for cell viability by trypan blue exclusion. Cell culture supernatant was assayed for VEGF protein by ELISA (FIG. 3A, n=4). Cell lysates from those cultures were assayed for VEGF-A gene expression by qRT-PCR, and normalized to the control value (FIG. 3B, n=4). In both figures, error bars represent the standard deviation in each test group.
On the technique in general: ELISA stands for enzyme-linked immunosorbent assay.

Experiment [4] deals with human bone marrow MSC. Kind of experiment: Bead-based immunoassay (Luminex) of cytokines in MSC culture supernatant. Particulars: 250 μg/mL, 24 h. The protocol:
Human bone marrow MSC were expanded and seeded into six (6) T225 flasks using standard growth medium (Table 1). At 95-99% confluency, cells were thoroughly washed with PBS. Three (3) flasks were replenished with basal media containing 250 μg/mL treprostinil, (+)Tre, and the remaining three (3) flasks were replenished with unsupplemented basal media, (−)Tre. After 24 hours of culture, representative images were captured from (+) Tre and (−) Tre cultures. Conditioned media was collected from each replicate, divided into two samples of appropriate volumes, and analyzed separately for: 1) secreted proteins (Myriad RBM InflammationMAP® 1.0) and 2) exosome RNA content. Cells were lysed directly from culture flasks, processed for total RNA isolation, and analyzed for gene expression by microarray (Illumina Human HT12 Expression BeadChip). Bead-based immunoassays (Luminex) was performed to assess the concentration of 46 cytokines in cell culture supernatants (Myriad RBM Human InflammationMAP® 1.0). Of the 46 evaluated, 6 were differentially secreted in treprostinil-treated and -untreated MSC cultures (see Table 6, n=3 per group). Asterisks indicate statistical significance between the groups based on a Student's T Test (*p<0.001, or **p<0.0001).

[5] abbreviates: 24 h (FIG. 8, lower panel), p<0.05.

Entries after “also recorded” stand apart in the source; their conditions may differ.

As to `CCCCC[C@H](O)CC[C@@H]1[C@H]2Cc3cccc(OCC(=O)O)c3C[C@H]2C[C@H]1O` [treprostinil], in the experiment with human bone marrow MSC [1] (100 μg/mL, 24 h), the “VEGF-A gene expression vs untreated controls” value is reported as “not significantly different from untreated controls”. The “VEGF-A gene expression, fold increase” value in the experiment on human bone marrow MSC [1] (200 μg/mL, 24 h) is given as “over 5 fold”. Also, in the experiment with human bone marrow MSC [1] (250 μg/mL, 24 h (FIG. 8, upper panel)), the “VEGF-A expression, fold over untreated controls (qRT-PCR)” value was roughly 3.5 fold. In the experiment with human bone marrow MSC [2] (setting [5]), the “let-7b abundance vs controls” value is recorded as “less prevalent” and the “miR-21 abundance vs controls” value is “more abundant”. The “VEGF-A gene transcripts in MSC-derived exosomes, fold increase” value in the experiment with human bone marrow MSC [2] (24 h (FIG. 10)) was roughly 4 fold. In the experiment on human bone marrow MSC [2] (24 h (FIG. 10), p<0.05), the “miR-21 in MSC-derived exosomes” value was “significantly more abundant” and the “miR-199-3p in MSC-derived exosomes” value is “significantly more abundant”. The “VEGF secretion, fold increase vs untreated controls” value in experiment [3] (100 μg/mL, 24 h (Example 2)) is roughly 2 fold. For the same compound, the VEGF secretion, fold of control values in experiment [3] (200 μg/mL, 24 h (Example 2)) came out at 3 fold. Moreover, in experiment [3] (0.1, 1.0, 10, 100 μg/mL, 24 h, vs 0 μg/mL (Example 1, FIG. 2)), the “VEGF secretion (ELISA)” value is recorded as “no statistically significant differences; also recorded: slight trend of increased VEGF secretion”. For the same compound, in experiment [3] (above 200 μg/mL (300, 400 μg/mL), 24 h), the “VEGF secretion at higher concentrations” value was “did not increase above this value”. In the experiment on human bone marrow MSC [4], the “IL-6 production, fold more compared to control MSC” value is roughly 50 fold and the “MCP-1 secretion, fold less than control MSC” value is listed as 6-7 fold. Besides, the “Interleukin-8 (IL-8) secretion” value in the experiment on human bone marrow MSC [4] (DECREASED vs (−) Treprostinil 2.4 +/− 1.0 pg/ml) is given as “Below detection”. Also, the “Tissue Inhibitor of Metalloproteinases 1 (TIMP-1) secretion” value in the experiment on human bone marrow MSC [4] (DECREASED vs (−) Treprostinil 29 +/− 3 ng/ml, p<0.001) turned out to be 12 ± 1 ng/mL. The “Monocyte Chemotactic Protein 1 (MCP-1) secretion” value in the experiment on human bone marrow MSC [4] (DECREASED vs (−) Treprostinil 379 +/− 35 pg/ml, p<0.0001) was found to be 47 ± 9 pg/mL. Further, the “Ferritin (FRTN) secretion” value in the experiment on human bone marrow MSC [4] (INCREASED vs (−) Treprostinil 0.70 +/− 0.11 ng/mL) turned out to be 0.96 ± 0.01 ng/mL. The “Interleukin-6 (IL-6) secretion” value in the experiment on human bone marrow MSC [4] (INCREASED vs (−) Treprostinil 62 +/− 6 pg/ml, p<0.0001) came to 3580 ± 384 pg/mL. Besides, in the experiment on human bone marrow MSC [4] (INCREASED vs (−) Treprostinil 235 +/− 16 pg/ml, p<0.0001), the “Vascular Endothelial Growth Factor (VEGF) secretion” value is 612 ± 37 pg/mL.
